According to ChEMBL document CHEMBL5728780, “Cyclic substituted imidazo[4,5-c]quinoline derivatives” (2021):
pIC50: −log10 of the molar value.

Biological target: Leucine-rich repeat serine/threonine-protein kinase 2 (Homo sapiens, UniProt Q5S007)
Test: LRRK2 Assay: LRRK2 kinase activity was measured using Lantha Screen technology from Invitrogen. GST-tagged truncated LRRK2 from Invitrogen (Cat #PV4874) was incubated with a fluorescein-labeled peptide substrate based upon ezrin/radixin/moesin (ERM), also known as LRRKtide (Invitrogen cat #PR8976A), in the presence of a dose response of compound. Upon completion, the assay was stopped and detected with a terbium labeled anti-phospho-ERM antibody (Invitrogen, cat #PR8975A). The assay was carried out under the following protocol: The compound dose response was prepared by diluting compound to a top concentration of 0.3 mM in 100% DMSO and serial diluted by half-log in DMSO to give an 11 point curve, 100× final assay concentration. Using Echo acoustic dispensing, 60 nL of compound was transferred to a low volume Corning 384-well assay plate. 3 μL of a working solution of substrate (200 nM LRRKtide, 2 mM ATP) prepared in assay buffer (50 mM HEPES, pH 7.5, 3 mM MgCl2, with 2 mM DTT and 0.01% Brij35 added fresh) was added to the 60 nL compound assay plate. The kinase reaction was started with 3 μL of a working solution of LRRK2 enzyme at a concentration of 4 μg/mL. The final reaction concentrations were 100 nM LRRKtide, 1 mM ATP, 2 μg/mL LRRK2 enzyme and a compound dose response with a top dose of 3 μM. […]

Leucine-rich repeat serine/threonine-protein kinase 2, sequence (Q5S007 whole entry, looked up, the tested form may be a part): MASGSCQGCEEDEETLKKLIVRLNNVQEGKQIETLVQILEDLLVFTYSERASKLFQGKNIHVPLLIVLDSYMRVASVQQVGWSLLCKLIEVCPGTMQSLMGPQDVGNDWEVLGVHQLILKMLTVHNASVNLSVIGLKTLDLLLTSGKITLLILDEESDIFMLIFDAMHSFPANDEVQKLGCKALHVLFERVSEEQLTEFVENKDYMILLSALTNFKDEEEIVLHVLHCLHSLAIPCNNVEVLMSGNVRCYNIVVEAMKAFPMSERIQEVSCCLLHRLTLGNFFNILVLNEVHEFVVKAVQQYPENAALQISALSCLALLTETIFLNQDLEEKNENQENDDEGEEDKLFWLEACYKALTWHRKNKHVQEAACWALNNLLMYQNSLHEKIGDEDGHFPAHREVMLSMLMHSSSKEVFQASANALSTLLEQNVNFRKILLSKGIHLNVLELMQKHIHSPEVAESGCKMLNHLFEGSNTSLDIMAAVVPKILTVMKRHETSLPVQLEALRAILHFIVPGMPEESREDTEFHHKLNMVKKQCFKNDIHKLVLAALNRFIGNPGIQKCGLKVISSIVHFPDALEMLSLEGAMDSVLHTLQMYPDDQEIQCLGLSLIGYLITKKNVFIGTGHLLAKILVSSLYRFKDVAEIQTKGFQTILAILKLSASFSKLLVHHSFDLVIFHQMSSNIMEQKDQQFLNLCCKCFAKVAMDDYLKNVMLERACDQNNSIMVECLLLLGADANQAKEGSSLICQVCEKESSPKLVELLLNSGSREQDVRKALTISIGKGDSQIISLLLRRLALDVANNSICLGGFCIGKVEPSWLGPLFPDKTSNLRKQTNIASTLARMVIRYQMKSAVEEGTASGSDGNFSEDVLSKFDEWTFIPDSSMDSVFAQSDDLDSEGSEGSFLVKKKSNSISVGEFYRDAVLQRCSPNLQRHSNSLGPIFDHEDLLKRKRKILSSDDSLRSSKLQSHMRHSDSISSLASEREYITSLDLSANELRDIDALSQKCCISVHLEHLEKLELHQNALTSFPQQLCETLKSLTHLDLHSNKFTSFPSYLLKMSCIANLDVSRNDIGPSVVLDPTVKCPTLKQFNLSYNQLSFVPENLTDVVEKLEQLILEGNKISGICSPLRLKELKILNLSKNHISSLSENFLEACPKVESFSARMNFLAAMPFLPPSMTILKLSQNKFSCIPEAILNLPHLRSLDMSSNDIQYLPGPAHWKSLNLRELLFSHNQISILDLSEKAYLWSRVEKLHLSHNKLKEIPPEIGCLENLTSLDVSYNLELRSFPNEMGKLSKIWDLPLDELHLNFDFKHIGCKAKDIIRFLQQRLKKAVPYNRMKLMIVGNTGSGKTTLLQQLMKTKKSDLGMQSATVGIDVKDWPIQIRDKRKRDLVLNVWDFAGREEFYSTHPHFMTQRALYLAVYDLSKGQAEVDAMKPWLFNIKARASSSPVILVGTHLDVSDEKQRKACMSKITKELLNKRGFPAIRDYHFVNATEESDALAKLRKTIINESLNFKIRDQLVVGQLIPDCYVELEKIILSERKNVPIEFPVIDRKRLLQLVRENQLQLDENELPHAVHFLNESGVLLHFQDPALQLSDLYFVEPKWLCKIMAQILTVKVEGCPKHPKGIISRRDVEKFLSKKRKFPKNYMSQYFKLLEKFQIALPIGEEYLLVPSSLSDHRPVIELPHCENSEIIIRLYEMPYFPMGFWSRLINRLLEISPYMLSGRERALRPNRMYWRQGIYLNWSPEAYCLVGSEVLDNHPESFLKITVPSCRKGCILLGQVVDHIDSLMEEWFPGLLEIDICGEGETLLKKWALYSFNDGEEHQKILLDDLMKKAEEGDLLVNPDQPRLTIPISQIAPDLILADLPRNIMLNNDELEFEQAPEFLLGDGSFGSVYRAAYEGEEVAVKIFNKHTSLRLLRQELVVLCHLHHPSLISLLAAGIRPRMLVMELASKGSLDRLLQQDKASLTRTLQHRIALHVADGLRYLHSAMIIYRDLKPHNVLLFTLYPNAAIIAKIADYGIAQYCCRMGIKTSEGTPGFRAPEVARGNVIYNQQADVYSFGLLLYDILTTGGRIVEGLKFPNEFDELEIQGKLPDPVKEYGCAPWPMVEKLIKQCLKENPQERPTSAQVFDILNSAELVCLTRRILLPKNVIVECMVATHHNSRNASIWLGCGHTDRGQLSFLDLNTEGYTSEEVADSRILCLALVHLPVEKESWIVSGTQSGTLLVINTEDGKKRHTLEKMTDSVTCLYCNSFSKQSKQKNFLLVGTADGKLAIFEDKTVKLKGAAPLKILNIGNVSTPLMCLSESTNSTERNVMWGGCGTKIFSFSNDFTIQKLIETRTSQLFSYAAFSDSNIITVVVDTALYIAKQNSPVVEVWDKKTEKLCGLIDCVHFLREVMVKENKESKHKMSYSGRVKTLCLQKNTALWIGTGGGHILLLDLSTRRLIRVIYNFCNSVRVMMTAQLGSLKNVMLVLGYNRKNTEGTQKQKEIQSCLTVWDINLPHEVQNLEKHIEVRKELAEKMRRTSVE

With `CN1CC[C@@H](n2c(C3CCC(F)C3)nc3cnc4ccc(F)cc4c32)C1` (stereo partly specified) the pIC50 was < 5.55.
